Data: PMC5915149, “The role of oxidative stress in activity of anticancer thiosemicarbazones” (Oncotarget, 2018)
Read-outs that look alike come from different tables or passages of the source.

Legend:
[1] = system: MCF-7; experiment: MTS antiproliferative assay, MCF-7 (with or without added metal ions); format: cell-based, human
Experimental: The cells were seeded in 96-well plates (Nunc) at a density of 3,500 cells/well (HCT116 and MCF-7) and 3,000 cells/well (NHDF) and incubated at 37° C for 24 h. The assay was performed following a 96 h incubation with varying concentrations of the compounds that were being tested. Then, 20 µL of CellTiter 96® AQueous One Solution-MTS (Promega) was added to each well (with 100 µL DMEM without phenol red) and incubated for 1 h at 37° C. The optical densities of the samples were analyzed at 490 nm using a multi-plate reader (Synergy 4, Bio Tek). Results were expressed as a percentage of the control and calculated as the inhibitory concentration (IC50) values (using GraphPad Prism 5). The IC50 parameter was defined as the compound concentration that was necessary to reduce the proliferation of cells to 50% of the untreated control. Each individual compound was tested in triplicate in a single experiment with each experiment being repeated three or four times.
The HCT116 and MCF-7 cells were seeded in 96-well plates (Nunc) at a density of 3,500 cells/well and incubated at 37° C for 24 h. The MTS assay was performed following a 96 h incubation with varying concentrations of the tested compounds. Additionally, a 20 µM solution of CuSO4, FeSO4 or FeCl3 was added into wells with the tested compounds. The results were expressed as a percentage of the control and calculated as the inhibitory concentration (IC50) values using GraphPad Prism 5. Each individual compound was tested in triplicate in a single experiment with each experiment being repeated three times.

[2] = system: HCT116 cells; experiment: Time dependent measurement of ROS level; format: cell-based, human; details: 1 µM; 3, 6, 9, 12, 24 h
Experimental: To determine the intracellular levels of ROS, HCT116 cells were seeded onto black 96-well plates (Corning) at a density of 9,000 cells/well and incubated at 37° C. After an overnight incubation, the solutions of the tested compounds: 1a-c, 2 a-b, 3 a-c, Dp44mT (1 μM) and DOX (5 μM) were added and incubated for 3, 6, 9, 12, and 24 h in a kinetic experiment. The generation of ROS was measured using a CellROX® Green Reagent (Molecular Probes™). Additionally, the quantity of cells in each well was determined using Hoechst 33342 (Molecular Probes™). The solutions of the tested compounds were removed and 100 µL of CellROX Green Reagent and Hoechst 33342 at a final concentration of 5 μM were added to each well. Then, the cells were incubated for 30 min at 37° C. The fluorescence was measured using a multi-plate reader (Synergy 4, Bio Tek) at 485 nm excitation and a 520 nm emission for CellROX Green Reagent and a 345 nm excitation laser and a 485 nm emission filter for Hoechst 33342. The experiments were performed three to four times. ROS levels were expressed as the percentage of the control cells level.

[3] = system: Ndrg1; experiment: mRNA expression (Real-Time PCR) of Ndrg1; format: cell-based, human; details: HCT116, TSC 1 µM, 12 h
Experimental: The HCT116 cells were seeded in 3 cm Petri dishes (Nunc) at a density of 0.5·10^6 cells/well and incubated overnight. Next, the medium was removed and solutions of TSC (1 μM) and DOX (5 μM) were added. After 12 or 24 h, total RNA was isolated from the cells using TRIzol Reagent (Ambion) according to the manufacturer’s instructions. cDNA synthesis was performed with 5 μg of total RNA using a GoScript™ Reverse Transcriptase kit (Promega) and Oligo(dT)23 Primers (Sigma). The Real-Time PCR was performed with a CTX96 Touch™ Real-Time PCR Detection System (Biorad) in a 20 μL reaction volume. The reaction consisted of PowerUp™ SYBR® Green Master Mix (Applied Biosystems), a primer pair mix (0.5 μM each) and 1 μL of cDNA. All primer pair sequences were purchased from Sigma-Aldrich and are listed in Supplementary Table 2. The experiment was performed under the following conditions: initial denaturation at 95° C for 120 sec; followed by 40 denaturation cycles at 95° C, 15 sec; annealing (primer-specific temperature for 30 sec) and extension at 72° C for 60 sec. Data was analyzed based on a comparison of the expression of the target genes to a reference gene – β-actin, using the 2^–ΔΔCT method. The experiments were performed at least three times.

[4] = system: calf-thymus DNA (CT-DNA); experiment: Intercalation, absorption spectra with CT-DNA; format: binding
Experimental: For the DNA binding studies, Calf-thymus DNA (CT-DNA) was purchased from Sigma Aldrich. The lyophilized CT-DNA was dissolved in 10 mM Tris-HCl, pH 7.9, mixed gently and left overnight at 4° C. The purity of the CT-DNA solution was determined by measuring the ratio of UV absorbance at 260 and 280 nm. […] Then, the concentration of CT-DNA was determined from the absorbance at 260 nm using an extinction coefficient of 6600 M^–1cm^–1. The tested TSC and DOX were dissolved in DMSO to a concentration of 8.35 mM, which was then used as the stock solution for preparing the various concentrations (25, 12.5, 6 and 3 µM) in 1 mL in 10 mM of Tris-HCl (pH 7.9). Afterwards, 18 µM CT-DNA was added to the prepared solutions, which were incubated for 1.5 h at 37° C with occasional vortexing. The absorption spectra were measured using a Hitachi U-2900 spectrophotometer in range of 200–500 nm. All absorption spectra were imported and compared in OriginPro 8.0.

[5] = system: NHDF; set-up: method as in PMID 25329549; details: 96 h incubation, MTS; cited from earlier work

- IC50 ([1]; 96 h, 20 µM CuSO4 added, read-out: Activity - IC50 MCF-7+ Cu^2+): 1.55 ± 0.55 nM
- IC50 ([1]; 96 h, 20 µM FeCl3 added, read-out: Activity - IC50 MCF-7+ Fe^3+): 8.96 ± 1.81 nM
- IC50 ([1]; 96 h incubation, MTS, read-out: Activity - IC50 MCF-7): 12 ± 2.04 nM
SMILES: S=C(NN=C(c1ccccn1)c1ccccn1)N1CCN(c2ccccc2)CC1 [Compound 3a]
- improvement in cytotoxicity after interacting with Cu^2+ ([1]; MCF-7 cells, 20 µM CuSO4): eight-fold
- level of ROS, normalized to untreated cells [2]: strongest effect
- mRNA expression of Ndrg1 [3]: significant increase
- % hypochromism ([4]; bound to CT-DNA): 28.2%
- Changes in absorbance ([4]; bound to CT-DNA): hypochromism
- Δε ([4]; bound to CT-DNA): 4120.0 M⁻¹ cm⁻¹
- blue/red shift ([4]; wavelengths of maximum absorption, compound alone vs DNA-bound): 5 nm
- IC50 [5]: 1.73 ± 0.71 nM
